Experimental data as given in patent publication US12508280B2, “Formulations for improving gut health” (DSM IP ASSETS B.V., priority 2018, dated 2025).

Experiments:
Type in all cases: cell-based, human
[1] = test system: fecal inoculum of two healthy adults; assay: Short-term colonic incubations, SCFA production (second set); details: 48 h fermentation
Experimental: In a second set of in vitro experiments, at the start of the short-term colonic incubations, the test ingredients were added to nutritional medium containing basal nutrients present in the colon (e.g. host-derived glycans such as mucin). Three doses were tested per product. The nutritional medium used for this particular project was again supplemented with NaCl, MgSO4, CaCl2, hemin and bile salts, and with carbon sources glucose, starch and cellobiose. A blank, containing the same nutritional medium as that used for the product incubations, but without product addition, was included for each donor. In doing so, an assessment can be made of the background activity of the bacterial community, which results from fermentation of compounds in the nutritional medium. As a source of the colonic microbiota a fecal inoculum of two healthy adults was added. Incubations were performed for 48 h at 37'C, under shaking (90 rpm) and anaerobic conditions and protected from light. […] Each compound was tested in three different concentrations; an overview is given in Table 2, below: Short chain fatty acids (SCFA) are an assessment of the microbial carbohydrate metabolism (acetate, propionate and butyrate) or protein metabolism (branched SCFA) and can be compared to typical fermentation patterns for normal GI microbiota. Samples for SCFA analysis were analyzed after 0, 6, 24 and 48 h of incubation for both set of in vitro experiments, above. SCFA were extracted from the samples with diethyl ether, after the addition of 2-methyl hexanoic acid as an internal standard. […], Belgium), a flame ionization detector and a split injector. The injection volume was […] and the temperature profile was set from 110 to 160° C., with a temperature increase of 6° C. min-1. […] The production of unbranched and branched SCFA was calculated by summing the molar concentrations of acetate, propionate, butyrate, valerate and caproate, and summing isobutyrate, isovalerate and isocaproate molar concentrations, respectively. The total SCFA production was defined as the sum of unbranched and branched SCFA.

[2] = test system: colonic microbiota (fecal inoculum of two healthy adults); assay: 16S-targeted Illumina sequencing with flow cytometry, taxa abundance (second set); details: 24 h fermentation
Experimental: (§1) In a second set of in vitro experiments, at the start of the short-term colonic incubations, the test ingredients were added to nutritional medium containing basal nutrients present in the colon (e.g. host-derived glycans such as mucin). Three doses were tested per product. The nutritional medium used for this particular project was again supplemented with NaCl, MgSO4, CaCl2, hemin and bile salts, and with carbon sources glucose, starch and cellobiose. A blank, containing the same nutritional medium as that used for the product incubations, but without product addition, was included for each donor. In doing so, an assessment can be made of the background activity of the bacterial community, which results from fermentation of compounds in the nutritional medium. As a source of the colonic microbiota a fecal inoculum of two healthy adults was added. Incubations were performed for 48 h at 37′C, under shaking (90 rpm) and anaerobic conditions and protected from light. […] For the second set of in vitro experiments, two techniques were combined according to Vandeputte et al.

[3] = test system: colonic microbiota (fecal inoculum of two healthy adults); assay: Microbiome diversity, alpha and beta (second set)
Experimental: as §1

CC1=C(/C=C/C(C)=C/C=C/C(C)=C/C=C/C=C(C)/C=C/C=C(C)/C=C/C2=C(C)CCCC2(C)C)C(C)(C)CCC1 [β-carotene]
butyrate production ([1]; 0.2× dose, donor C): increase butyrate production
acetate production ([1]; 1× dose, both donors): increase acetate production
butyrate production ([1]; 1× dose, both donors): increase butyrate production
total SCFA production ([1]; 1× dose, both donors): increase total SCFA production
propionate production ([1]; 1× dose, donor C): increase propionate production
acetate production ([1]; 5× dose, both donors): increase acetate production
total SCFA production ([1]; 5× dose, both donors): increase total SCFA production
propionate production ([1]; 5× dose, donor C): increase propionate production
Bifidobacteriaceae relative abundance ([2]; 1× dose, both donors): increase Bifidobacteriaceae relative abundance
Clostridiaceae relative abundance ([2]; 1× dose, donor C): increase Clostridiaceae relative abundance
Prevotellaceae relative abundance ([2]; 1× dose, donor C): increase Prevotellaceae relative abundance
Coriobacteriaceae relative abundance ([2]; 1× dose, donor D): increase Coriobacteriaceae relative abundance
Faecalibacterium prausnitzii relative abundance ([2]; 1× dose, donor D): increase Faecalibacterium prausnitzii relative abundance
Veillonellaceae relative abundance ([2]; 1× dose, donor D): increase Veillonellaceae relative abundance
Akkermansiaceae relative abundance ([2]; 5× dose, both donors): increase Akkermansiaceae relative abundance
Bifidobacteriaceae relative abundance ([2]; 5× dose, both donors): increase Bifidobacteriaceae relative abundance
Desulfovibrionaceae relative abundance ([2]; 5× dose, both donors): decrease Desulfovibrionaceae relative abundance
Eggerthellaceae relative abundance ([2]; 5× dose, both donors): increase Eggerthellaceae relative abundance
Barnesiellaceae relative abundance ([2]; 5× dose, donor D): increase Barnesiellaceae relative abundance
Coriobacteriaceae relative abundance ([2]; 5× dose, donor D): increase Coriobacteriaceae relative abundance
Faecalibacterium prausnitzii relative abundance ([2]; 5× dose, donor D): increase Faecalibacterium prausnitzii relative abundance
Veillonellaceae relative abundance ([2]; 5× dose, donor D): increase Veillonellaceae relative abundance
beta-diversity (Bray-Curtis distance to control) ([3]; 0.2× dose, donor D): increases beta-diversity
beta-diversity (Bray-Curtis distance to control) ([3]; 1× dose, both donors): increases beta-diversity
beta-diversity (Bray-Curtis distance to control) ([3]; 1× dose, donor D): increases beta-diversity
beta-diversity (Bray-Curtis distance to control) ([3]; 5× dose, both donors): increases beta-diversity

Calcium D-Pantothenate [vitamin B5]
propionate production ([1]; 0.2× dose, donor C): increase propionate production
branched SCFA production ([1]; 5× dose, both donors): decrease branched SCFA production
Akkermansiaceae relative abundance ([2]; 0.2× dose, donor D): increase Akkermansiaceae relative abundance
Faecalibacterium prausnitzii relative abundance ([2]; 0.2× dose, donor D): increase Faecalibacterium prausnitzii relative abundance
Veillonellaceae relative abundance ([2]; 0.2× dose, donor D): increase Veillonellaceae relative abundance
Erysipelotrichaceae relative abundance ([2]; 1× dose, donor D): increase Erysipelotrichaceae relative abundance
Faecalibacterium prausnitzii relative abundance ([2]; 1× dose, donor D): increase Faecalibacterium prausnitzii relative abundance
Bifidobacteriaceae relative abundance ([2]; 5× dose, both donors): increase Bifidobacteriaceae relative abundance
Desulfovibrionaceae relative abundance ([2]; 5× dose, donor C): decrease Desulfovibrionaceae relative abundance
Faecalibacterium prausnitzii relative abundance ([2]; 5× dose, donor D): increase Faecalibacterium prausnitzii relative abundance
alpha-diversity (Shannon diversity index) ([3]; 0.2× dose, donor D): increases alpha-diversity
beta-diversity (Bray-Curtis distance to control) ([3]; 5× dose, both donors): increases beta-diversity
alpha-diversity (Shannon diversity index) ([3]; 5× dose, donor D): increases alpha-diversity
